# Laboratory results from paper PMC9120017, “Inhibition mechanism of the chloride channel TMEM16A by the pore blocker 1PBC” (Nature Communications, 2022).
# Like-named read-outs stand apart in the source and are kept apart here.
# Target: T1, mouse TMEM16A mutant P595A (Mus musculus, UniProt Q8BHY3, P595A)
# T1 construct: expressed in transfected cells; host or cells: HEK293T
# T1 sequence (Q8BHY3 1-960 P595A): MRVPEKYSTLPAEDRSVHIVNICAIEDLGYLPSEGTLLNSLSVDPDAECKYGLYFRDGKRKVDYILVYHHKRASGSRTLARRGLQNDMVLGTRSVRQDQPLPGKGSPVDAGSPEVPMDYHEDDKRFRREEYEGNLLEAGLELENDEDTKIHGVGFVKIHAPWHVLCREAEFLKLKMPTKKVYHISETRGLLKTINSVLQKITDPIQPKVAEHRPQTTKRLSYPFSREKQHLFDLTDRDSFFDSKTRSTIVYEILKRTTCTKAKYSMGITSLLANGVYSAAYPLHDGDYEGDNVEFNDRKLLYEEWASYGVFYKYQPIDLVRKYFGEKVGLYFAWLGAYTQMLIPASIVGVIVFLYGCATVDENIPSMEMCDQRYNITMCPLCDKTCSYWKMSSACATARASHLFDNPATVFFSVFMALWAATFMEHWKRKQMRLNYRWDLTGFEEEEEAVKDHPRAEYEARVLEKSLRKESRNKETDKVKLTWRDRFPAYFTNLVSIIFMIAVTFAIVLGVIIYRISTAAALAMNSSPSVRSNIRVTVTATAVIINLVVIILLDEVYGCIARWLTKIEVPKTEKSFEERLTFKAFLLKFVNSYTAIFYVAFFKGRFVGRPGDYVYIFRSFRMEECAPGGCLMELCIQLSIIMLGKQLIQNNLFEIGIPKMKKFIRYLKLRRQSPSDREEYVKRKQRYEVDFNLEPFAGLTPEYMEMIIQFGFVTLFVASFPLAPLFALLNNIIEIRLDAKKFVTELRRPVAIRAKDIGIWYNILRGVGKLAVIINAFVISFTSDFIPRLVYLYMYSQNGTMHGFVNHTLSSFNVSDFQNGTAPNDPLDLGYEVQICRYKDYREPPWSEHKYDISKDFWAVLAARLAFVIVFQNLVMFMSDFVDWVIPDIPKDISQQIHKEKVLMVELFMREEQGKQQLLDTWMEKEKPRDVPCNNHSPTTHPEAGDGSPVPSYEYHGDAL
# Assay: Inside-out patch recording of 1PBC block, mutant P595A
# Type: cell-based
# Conditions: for remaining activity at 1 µM: 1PBC conc 1; for remaining activity at 1 µM / remaining activity at 3 µM / remaining activity at 10 µM / remaining activity at 30 µM: read-out: relative current in 1PBC (avr); for remaining activity at 3 µM: 1PBC conc 3; for remaining activity at 10 µM: 1PBC conc 10; for remaining activity at 30 µM: 1PBC conc 30
# Experimental: HEK293T cells (ATCC CRL-1573) were maintained in Dulbecco’s modified Eagle’s medium (DMEM; Sigma-Aldrich) supplemented with 10 U ml^−1 penicillin, 0.1 mg ml^−1 streptomycin (Sigma-Aldrich), 2 mM L-glutamine (Sigma-Aldrich), and 10% FBS (Sigma-Aldrich) in a humidified atmosphere containing 5% CO2 at 37 °C. HEK293S GnTI^− cells (ATCC CRL-3022) were maintained in HyClone HyCell TransFx-H medium (GE Healthcare) supplemented with 10 U ml^−1 penicillin, 0.1 mg ml^−1 streptomycin, 4 mM L-glutamine, 0.15% poloxamer 188 (Sigma-Aldrich), and 1% FBS in an atmosphere containing 5% CO2 at 185 rpm at 37 °C. The ac splice variant of mouse TMEM16A (UniProt ID: Q8BHY3), mouse TMEM16B (UniProt ID: Q8CFW1), or mouse TMEM16F (UniProt ID: Q6P9J9) bearing a 3C cleavage site, a Venus YFP, a Myc tag, and a Streptavidin-binding peptide (SBP) downstream of the open reading frame in a modified pcDNA3.1 vector (Invitrogen) were used as described previously[21],[31]. Mutations were introduced using a modified QuikChange method[58] and were verified by sequencing.
# HEK293T cells were transfected with 3–4 μg DNA per 6 cm Petri dish using the calcium phosphate co-precipitation method and were used within 24–96 h after transfection. Recordings were performed on inside-out patches excised from HEK293T cells expressing the construct of interest. Patch pipettes were pulled from borosilicate glass capillaries (O.D. 1.5 mm, I.D. 0.86 mm, Sutter Instrument) and were fire-polished with a microforge (Narishige) before use. Pipette resistance was typically 3–8 MΩ when filled with the recording solutions detailed below. Seal resistance was typically 4 GΩ or higher. Voltage-clamp recordings were made using Axopatch 200B, Digidata 1550, and Clampex 10.7 (Molecular Devices). Analog signals were filtered with the in-built 4-pole Bessel filter at 10 kHz and were digitized at 20 kHz. Solution exchange was achieved using a gravity-fed system through a theta glass pipette mounted on an ultra-fast piezo-driven stepper (Siskiyou). […] All recordings were performed at 20 °C.
# A symmetrical ionic condition was used throughout. Stock solution with Ca^2+-EGTA contained 150 mM NaCl, 5.99 mM Ca(OH)2, 5 mM EGTA, and 10 mM HEPES at pH 7.40. Stock solution with EGTA contained 150 mM NaCl, 5 mM EGTA, and 10 mM HEPES at pH 7.40. Free Ca^2+ concentrations were adjusted by mixing the stock solutions at the required ratios calculated using the WEBMAXC program (http://web.stanford.edu/~cpatton/webmaxcS.htm). Patch pipettes were filled with the stock solution with Ca^2+-EGTA, which has a free Ca^2+ concentration of 1 mM. 1PBC (ChemBridge) stock was reconstituted in anhydrous DMSO (Sigma-Aldrich) at 100 mM and stored at −20 °C. Working solutions with 1PBC were prepared by serial dilution. Unless otherwise stated, experiments were performed at a saturating Ca^2+ concentration as shown in Supplementary Table 1 and the primary data were corrected for current rundown as described previously[21],[25].
# Concentration-response relations, obtained from the ratio of the I-V plots before and after the application of the blocker, were fitted to the Hill equation,1 I/Imax=1/1+IC50/[blocker]^h where I/Imax is the normalized current responses, IC50 defines the concentration at which inhibition is at its half-maximum, and h is the Hill coefficient.
compound,measurement,setting,value
N#Cc1c(C(F)(F)F)cc(O)n2c1nc1ccccc12 [1PBC],IC50,"0 mV, 2 µM Ca2+",3.1 µM
same,remaining activity at 1 µM,0 mV,75.3%
same,remaining activity at 3 µM,0 mV,48.8%
same,remaining activity at 10 µM,0 mV,25.9%
same,remaining activity at 30 µM,0 mV,11.1%
same,IC50,"20 mV, 2 µM Ca2+",2.46 µM
same,remaining activity at 1 µM,20 mV,70.9%
same,remaining activity at 3 µM,20 mV,43%
same,remaining activity at 10 µM,20 mV,22.6%
same,remaining activity at 30 µM,20 mV,8.98%
same,IC50,"40 mV, 2 µM Ca2+",2 µM
same,remaining activity at 1 µM,40 mV,66.5%
same,remaining activity at 3 µM,40 mV,38.4%
same,remaining activity at 10 µM,40 mV,19%
same,remaining activity at 30 µM,40 mV,7.73%
same,IC50,"60 mV, 2 µM Ca2+",1.75 µM
same,remaining activity at 1 µM,60 mV,64.4%
same,remaining activity at 3 µM,60 mV,34.6%
same,remaining activity at 10 µM,60 mV,16.9%
same,remaining activity at 30 µM,60 mV,7.56%
same,IC50,"80 mV, 2 µM Ca2+",1.57 µM
same,remaining activity at 1 µM,80 mV,61.3%
same,remaining activity at 3 µM,80 mV,32.5%
same,remaining activity at 10 µM,80 mV,15.9%
same,remaining activity at 30 µM,80 mV,7.06%
same,IC50,"100 mV, 2 µM Ca2+",1.48 µM
same,remaining activity at 1 µM,100 mV,60.2%
same,remaining activity at 3 µM,100 mV,31%
same,remaining activity at 10 µM,100 mV,15.3%
same,remaining activity at 30 µM,100 mV,6.31%
same,IC50,"120 mV, 2 µM Ca2+",1.63 µM
same,remaining activity at 1 µM,120 mV,64.3%
same,remaining activity at 3 µM,120 mV,31.5%
same,remaining activity at 10 µM,120 mV,15.7%
same,remaining activity at 30 µM,120 mV,6.66%
same,IC50,"140 mV, 2 µM Ca2+",1.91 µM
same,remaining activity at 1 µM,140 mV,70.3%
same,remaining activity at 3 µM,140 mV,33.2%
same,remaining activity at 10 µM,140 mV,17.5%
same,remaining activity at 30 µM,140 mV,7.54%
same,IC50,"-20 mV, 2 µM Ca2+",3.88 µM
same,remaining activity at 1 µM,-20 mV,79.6%
same,remaining activity at 3 µM,-20 mV,54.6%
same,remaining activity at 10 µM,-20 mV,29.2%
same,remaining activity at 30 µM,-20 mV,13.3%
same,IC50,"-40 mV, 2 µM Ca2+",4.91 µM
same,remaining activity at 1 µM,-40 mV,84%
same,remaining activity at 3 µM,-40 mV,59.7%
same,remaining activity at 10 µM,-40 mV,33.9%
same,remaining activity at 30 µM,-40 mV,15.9%
same,IC50,"-60 mV, 2 µM Ca2+",5.83 µM
same,remaining activity at 1 µM,-60 mV,87.1%
same,remaining activity at 3 µM,-60 mV,62.7%
same,remaining activity at 10 µM,-60 mV,37.7%
same,remaining activity at 30 µM,-60 mV,18.7%
same,IC50,"-80 mV, 2 µM Ca2+",7 µM
same,remaining activity at 1 µM,-80 mV,88.8%
same,remaining activity at 3 µM,-80 mV,67.8%
same,remaining activity at 10 µM,-80 mV,41.3%
same,remaining activity at 30 µM,-80 mV,21%
same,IC50,"-100 mV, 2 µM Ca2+",8.19 µM
same,remaining activity at 1 µM,-100 mV,90.4%
same,remaining activity at 3 µM,-100 mV,70.3%
same,remaining activity at 10 µM,-100 mV,45%
same,remaining activity at 30 µM,-100 mV,24%
same,IC50,"-120 mV, 2 µM Ca2+",9.33 µM
same,remaining activity at 1 µM,-120 mV,92.2%
same,remaining activity at 3 µM,-120 mV,72.9%
same,remaining activity at 10 µM,-120 mV,47.9%
same,remaining activity at 30 µM,-120 mV,26.1%
same,IC50,"-140 mV, 2 µM Ca2+",10.5 µM
same,remaining activity at 1 µM,-140 mV,93.8%
same,remaining activity at 3 µM,-140 mV,75.4%
same,remaining activity at 10 µM,-140 mV,50.3%
same,remaining activity at 30 µM,-140 mV,28.4%
same,IC50,"P595A, V 0 mV",3.1 µM
same,IC50,"P595A, V 20 mV",2.46 µM
same,IC50,"P595A, V 40 mV",2 µM
same,IC50,"P595A, V 60 mV",1.75 µM
same,IC50,"P595A, V 80 mV",1.57 µM
same,IC50,"P595A, V 100 mV",1.48 µM
same,IC50,"P595A, V 120 mV",1.63 µM
same,IC50,"P595A, V 140 mV",1.91 µM
same,IC50,"P595A, V -20 mV",3.88 µM
same,IC50,"P595A, V -40 mV",4.91 µM
same,IC50,"P595A, V -60 mV",5.83 µM
same,IC50,"P595A, V -80 mV",7 µM
same,IC50,"P595A, V -100 mV",8.19 µM
same,IC50,"P595A, V -120 mV",9.33 µM
same,IC50,"P595A, V -140 mV",10.5 µM
